Laboratory results published in paper PMC6030159 (Scientific Reports, 2018).

Experiments:
[1] = test system: SK-N-DZ cells; test: Anchorage-independent growth in agarose; assay type: cell-based; conditions: Homo sapiens, 384 h, 0.35% agarose, 16 days
Method: Triton-X-114 (Sigma). Truncated p53 core protein was a kind gift from Klas Wiman, CCK, […]
Cell proliferation assays. Cell growth and viability was estimated in triplicates with WST-1 (Roche) or Resazurin sodium salt (Sigma-Aldrich) assays in medium at 37°C and 5% CO 2 for 2 hours after which absorbance or fluorescence, respectively, was measured with an Omega Fluostar (BMG Labtech) in a 96 well plate format. Cell counting was done in 96 well plates with CellTracker Green (ThermoFisher) for 30 min in the incubator, after which DAPI was added for 5 min. Images were taken in the green (FITC) and blue (DAPI) channels using a fluorescence microscope (ImageXpress Micro, Molecular Devices). For anchorage-independent growth assay, cells were suspended in 250 µl 0.35% SeaPlaque agarose (InVitro) and seeded into 24 well plates which had previously been coated with a bottom layer of 250 µl 0.7% agarose. After 16 days, the colonies were stained with 100 µg/ml MTT (Sigma) overnight and colonies were counted.
Immunohistochemistry. Apoptosis was visualized at the single-cell level on tumor cryosections using the TUNEL method using the In Situ Cell Death Detection Fluorescein-Roche kit and analyzed by fluorescence microscopy. Briefly, tumor cryosections were fixed in 4% paraformaldyde (PFA) and the assay was performed following the instructions from the manufacturer. Negative controls were run using the reagent without the TdT enzyme. Samples were mounted using Vectashield mounting medium (Vector) and DAPI was used as nuclear counterstaining. Cell proliferation and microvascular density (MVD) were evaluated through Ki67 and CD31staining, respectively, on tumor cryosections and detected by immunofluoresence. Visualization and image acquisition was done in a Zeiss microscope, and for panoramic views by a Vectra imaging system. For quantification, areas with positive TUNEL and Ki67 staining were measured using Image J software. For the analysis of MVD, the number of vessel structures per microscopic field was calculated.

[2] = test system: T1, MAX:MXD1(MAD1); test: GLuc MAD:MAX in COS-7 cells; assay type: cell-based; conditions: 12.5 µM
T1 construct: full-length MXD1(MAD1) or full-length MAX cDNA; expressed in transfected cells; host or cells: COS-7
Method: The protein fragment complementation assay using the Gaussia luciferase has been described. 0.2–0.4 μg of each GLuc-construct (see Supplementary Information) together with 0.05–0.2 μg pCMV-Luc (Firefly luciferase) were transiently transfected into HEK293 or COS-7 cells in 6-well plates. 24 hours later cells were treated with compound (10–25 μM) or DMSO. After another 17 hours, the cells were harvested and lyzed in passive lysis buffer (Promega) supplemented with complete protease inhibitor (Roche). After 60 min incubation at room temperature 20 μM D-luciferin was added (substrate of Firefly luciferase) and luminescence was measured in a Lumat LB9501 (Berthold) or OmegaFluostar (BMG Labtech) luminometer. Directly after, Gaussia luciferase substrate Coelenterazine (Promega) was added to a final concentration of 20 μM in a mixture with “Stop n’ Glow” (Promega) and the luciferase activity was measured. The ratio between Gaussia and Firefly luciferase values were calculated and normalized to DMSO-treated control cells.
Supplementary Figure Legends
Supplemental Figure S1. Schematic presentations of MYC and MAX protein constructs. A) BiFC constructs MYC-YFP-N and MAX-YFP-C, containing full-length MYC and MAX fused with N-terminal and C-terminal fragments of yellow fluorescent protein (YFP), respectively 3.
In the MYC deletion mutant MYCΔbHLHZip-YFP-N, the bHLHZip domain, residues 352-432, has been truncated 3. B) Gaussia princeps Luciferase (GLuc) constructs MYC-GLuc-C and MAX-GLuc-N, containing full-length MYC and MAX fused with N-terminal and C-terminal fragments of GLuc, respectively. MYC was truncated at residue 411-432 in order to produce the deletion mutant MYCΔZ ip-GLuc-C. […]
Supplemental Figure S2. […] The cells were reseeded and treated with vehicle or 25 µM of each compound, after which fluorescence was measured 24 hours post-treatment and the YFP/CFP ratio calculated and normalized to DMSO-treated cells.
B) MAD:MAX GLuc assay. MAD-GLuc-C and MAX-GLuc-N constructs were cotransfected into COS-7 cells together with CMV-Luc and treated with MYCMIs (12.5 µM) and analyzed […]

[3] = target: T2, MYCbHLHZip:MAXbHLHZip (Homo sapiens, UniProt P01106); test: MST MYC:MAX heterodimer formation assay; assay type: binding; conditions: for shift of MAX thermophoresis relative to DMSO (MYC:MAX MST): 50 µM compound, 1 µM MYCbHLHZip
T2 construct: 6xHis (N); made in house; host or cells: E. coli BL21 (DE3), pET28a
Source text: We next investigated the capacity of the small molecule inhibitors to directly target the MYC:MAX interaction in vitro. Two biophysical interaction assays, microscale thermophoresis (MST)[44] and surface plasmon resonance (SPR)[45], were developed using recombinant MYC and MAX proteins (Suppl. Fig. S1C) (manuscript in prep.). MST is based on the shift of fluorescent molecules moving in a temperature gradient (thermophoresis), which can be perturbed by interactions. In the MST MYC:MAX interaction assay, fluorescently labeled MAXbHLHZip was combined with MYCbHLHZip pre-mixed with compound.
MST was carried out on a Monolith NT.115 with blue/green filters, kindly provided by Luca Jovine, Karolinska Institutet Huddinge, according to manufacturer’s protocol (NanoTemper). MYCbHLHZip, MAXbHLHZip, BSA and BCL-XL recombinant proteins and compounds were diluted and titrated in PBS supplemented with 0.05% Triton-X-114 or 0.05% Tween-20. Titration of molecules was carried out in 16 PCR tubes into which a fixed concentration of fluorescent molecule was added. The mixture was applied to capillaries (standard treated, NanoTemper), and scanned in the Monolith NT.115 to measure initial fluorescence of molecule. MST was induced and fluorescence was measured during 40 seconds. Double measurements were carried out (MST power of 20% and 40%, or 40% and 60%) for each sample. Delta fluorescence or relative fluorescence of fluorescent molecule normalized to control vehicle was plotted against titrated molecule concentration. The protein labeling kit GREEN-NHS (NanoTemper) was used to label primary amines of proteins according to manufacture’s protocol.

T2 sequence (P01106 367-447 limits assumed): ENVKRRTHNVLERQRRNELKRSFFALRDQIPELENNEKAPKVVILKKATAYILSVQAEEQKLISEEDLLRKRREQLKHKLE

Compound | GI50 [1] | effect on MAX:MXD1(MAD1) interaction (GLuc) [2] | shift of MAX thermophoresis relative to DMSO (MYC:MAX MST) [3] | Kd ([3]; titration with 1 µM MYCbHLHZip and labeled MAXbHLHZip, read-out: Kd of thermophoresis shift, MYC:MAX MST)
CCOc1ccc2nc3cc(/N=N/c4ccc(N)nc4N)ccc3c(N)c2c1 [MYCMI-6] | < 0.4 µM | did not significantly affect | shifted MAX thermophoresis | 4.3 µM
CCCCN(c1ccccc1)c1ncnc2c1cnn2C [MYCMI-11] | 5 µM | did not significantly affect | less effective | –
O=C(O)/C=C/C(=O)Nc1cccc2c1-c1ccccc1C2=O [MYCMI-14] | 0.75 µM | did not significantly affect | less effective | –
